According to US20210387966A1, “2-AMINO-N-HETEROARYL-NICOTINAMIDES AS NAV1.8 INHIBITORS” (Merck Sharp & Dohme Corp., priority 2018, published 2021):

What follows are compounds tested against T1, human Nav1.8 channels (Homo sapiens, UniProt Q9Y5Y9) (assay: Nav1.8 Qube automated patch-clamp assay). Settings: human Nav1.8 stably expressed in HEK 293 cells; whole-cell voltage clamp, room temperature; resting or inactivated state not specified; read-out: IC50 values (nM) for Examples in the Nav1.8 Qube Assay.
T1 construct: expressed in transfected cells
T1 sequence (Q9Y5Y9 whole entry): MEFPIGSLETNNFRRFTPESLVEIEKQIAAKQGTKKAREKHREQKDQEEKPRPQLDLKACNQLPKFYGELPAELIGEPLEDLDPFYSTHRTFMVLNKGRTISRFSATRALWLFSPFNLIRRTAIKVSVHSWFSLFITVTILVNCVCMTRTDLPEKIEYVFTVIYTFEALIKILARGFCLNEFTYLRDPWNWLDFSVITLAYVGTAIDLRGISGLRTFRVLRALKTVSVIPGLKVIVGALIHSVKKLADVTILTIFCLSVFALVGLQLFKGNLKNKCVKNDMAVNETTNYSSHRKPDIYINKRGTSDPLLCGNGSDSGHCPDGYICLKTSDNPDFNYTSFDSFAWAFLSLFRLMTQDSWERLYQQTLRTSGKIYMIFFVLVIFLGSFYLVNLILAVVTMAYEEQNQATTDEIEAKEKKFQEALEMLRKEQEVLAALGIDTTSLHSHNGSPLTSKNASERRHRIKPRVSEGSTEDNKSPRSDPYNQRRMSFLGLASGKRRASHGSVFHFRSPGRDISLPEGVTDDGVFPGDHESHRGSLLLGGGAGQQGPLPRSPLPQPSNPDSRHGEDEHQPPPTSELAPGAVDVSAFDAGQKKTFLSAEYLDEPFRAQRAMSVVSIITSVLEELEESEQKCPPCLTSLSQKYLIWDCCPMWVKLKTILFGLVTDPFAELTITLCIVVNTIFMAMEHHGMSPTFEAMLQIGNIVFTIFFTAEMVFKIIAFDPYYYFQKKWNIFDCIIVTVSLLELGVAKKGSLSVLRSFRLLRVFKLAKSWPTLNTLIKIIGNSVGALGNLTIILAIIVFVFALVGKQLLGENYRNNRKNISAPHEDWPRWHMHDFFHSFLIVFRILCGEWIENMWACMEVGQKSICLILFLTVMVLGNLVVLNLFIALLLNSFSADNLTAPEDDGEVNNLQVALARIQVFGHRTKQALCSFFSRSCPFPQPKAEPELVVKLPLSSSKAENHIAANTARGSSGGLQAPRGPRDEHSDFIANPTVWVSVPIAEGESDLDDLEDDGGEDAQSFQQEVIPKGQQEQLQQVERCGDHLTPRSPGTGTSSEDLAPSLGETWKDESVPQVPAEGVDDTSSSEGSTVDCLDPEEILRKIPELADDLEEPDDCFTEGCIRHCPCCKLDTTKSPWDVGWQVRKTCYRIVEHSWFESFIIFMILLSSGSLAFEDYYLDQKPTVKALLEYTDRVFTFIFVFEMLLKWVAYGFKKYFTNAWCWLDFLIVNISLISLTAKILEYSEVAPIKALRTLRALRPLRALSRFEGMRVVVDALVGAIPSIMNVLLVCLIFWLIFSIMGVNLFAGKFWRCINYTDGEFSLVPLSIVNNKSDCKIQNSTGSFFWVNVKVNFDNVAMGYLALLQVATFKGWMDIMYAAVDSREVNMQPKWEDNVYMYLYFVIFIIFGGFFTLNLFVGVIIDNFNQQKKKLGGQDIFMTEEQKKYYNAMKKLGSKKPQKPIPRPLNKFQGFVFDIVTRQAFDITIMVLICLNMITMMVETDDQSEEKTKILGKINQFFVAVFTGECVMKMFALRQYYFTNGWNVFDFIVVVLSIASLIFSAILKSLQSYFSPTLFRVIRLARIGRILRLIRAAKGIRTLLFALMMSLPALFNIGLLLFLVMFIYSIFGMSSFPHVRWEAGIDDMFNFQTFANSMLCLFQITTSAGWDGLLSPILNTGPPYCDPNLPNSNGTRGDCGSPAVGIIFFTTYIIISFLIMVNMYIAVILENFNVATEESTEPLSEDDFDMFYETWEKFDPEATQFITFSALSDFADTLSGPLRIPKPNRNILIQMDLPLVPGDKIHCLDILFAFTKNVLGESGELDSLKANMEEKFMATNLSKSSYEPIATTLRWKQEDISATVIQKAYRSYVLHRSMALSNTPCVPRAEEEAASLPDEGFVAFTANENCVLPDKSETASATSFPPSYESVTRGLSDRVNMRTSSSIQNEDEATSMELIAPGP
Format: cell-based
In short: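 Whole-cell patch clamp at room temperature on HEK293 cells stably expressing human Nav1.8. A 1 Hz train of ten 20 ms pulses to 10 mV from −90 mV holding, with −67 mV repolarization, was applied; first- and tenth-pulse peak currents gave resting and inactivated-state IC50s by Hill fitting.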

SMILES | IC50 [nM]
CC1CC(F)(F)CCN1c1ncc(C(F)(F)F)cc1C(=O)Nc1ccnc(S(N)(=O)=O)c1 (single isomer, unassigned) [Example 73, (R or S)-2-(4,4-difluoro-2-methylpiperidin-1-yl)-N-(2-sulfamoylpyridin-4-yl)-5-(trifluoromethyl)nicotinamide] | 225
Cc1nc(N2CCC(F)(F)C(C)C2)c(C(=O)Nc2ccnc(S(N)(=O)=O)c2)cc1Cl (single isomer, unassigned) [Example 54, (S or R)-5-chloro-2-(4,4-difluoro-3-methylpiperidin-1-yl)-6-methyl-N-(2-sulfamoylpyridin-4-yl)nicotinamide] | 2.1
O=C(Nc1ccc2ncc(Br)n2c1)c1cc(C(F)(F)F)cnc1N1CCCCCC1 [Example 199, 2-(azepan-1-yl)-N-(3-bromoimidazo[1,2-a]pyridin-6-yl)-5-(trifluoromethyl)-pyridine-3-carboxamide] | 5070
O=C(O)c1ccc(NC(=O)c2cc(C(F)(F)F)cnc2N2CCC(F)(F)CC2)cn1 [Example 3, 5-(2-(4,4-difluoropiperidin-1-yl)-5-(trifluoromethyl)nicotinamido)picolinic acid] | 2380
NS(=O)(=O)c1cncc(NC(=O)c2cc(Cl)cnc2N2CCC(F)(F)CC2)c1 [Example 10, 5-chloro-2-(4,4-difluoro-1-piperidyl)-N-(5-sulfamoyl-3-pyridyl)pyridine-3-carboxamide] | 174
O=C(Nc1nccc(O)n1)c1cc(C(F)(F)F)cnc1N1CCC(F)(F)CC1 [Example 2, 2-(4,4-difluoropiperidin-1-yl)-N-(4-hydroxypyrimidin-2-yl)-5-(trifluoromethyl)nicotinamide] | 2190
Cc1cncc(NC(=O)c2cc(C(F)(F)F)cnc2N2CCCCCC2)c1 [Example 195, 2-(azepan-1-yl)-N-(5-methyl-3-pyridyl)-5-(tri-fluoromethyl)-pyridine-3-carboxamide] | 2770
NS(=O)(=O)c1cc(NC(=O)c2cc(C(F)(F)F)cnc2N2CCCCC2c2ccc(F)cc2)ccn1 (stereo not shown) [Example 95, 2-[2-(4-fluorophenyl)-1-piperidyl]-N-(2-sulfamoyl-4-pyridyl)-5-(trifluoromethyl)pyridine-3-carboxamide] | 1420
NS(=O)(=O)c1cc(NC(=O)c2cc(C(F)(F)F)cnc2N2CCCC3(C2)CC3(F)F)ccn1 (single isomer, unassigned) [Example 66, (R of S)-2-(1,1-difluoro-5-azaspiro[2.5]octan-5-yl)-N-(2-sulfamoylpyridin-4-yl)-5-(trifluoromethyl)nicotinamide] | 88
CC1(C)CN(c2ncc(C(F)(F)F)cc2C(=O)Nc2ccnc(S(N)(=O)=O)c2)CCCO1 [Example 107, 2-(2,2-dimethyl-1,4-oxazepan-4-yl)-N-(2-sulfamoyl-4-pyridyl)-5-(trifluoromethyl)pyridine-3-carboxamide] | 139
O=C(Nc1cc[nH]c(=O)c1)c1cc(C(F)(F)F)cnc1N1CCC2(CC1)CC2 [Example 208, N-(2-oxo-1,2-dihydropyridin-4-yl)-2-(6-azaspiro[2.5]octan-6-yl)-5-(trifluoromethyl)nicotinamide] | 287
Cc1nc(N2CCC(F)(F)CC2)c(C(=O)Nc2ccnc(S(N)(=O)=O)c2)cc1C(C)(C)C [Example 180, 5-(tert-butyl)-2-(4,4-difluoropiperidin-1-yl)-6-methyl-N-(2-sulfamoylpyridin-4-yl)nicotinamide] | 14
CS(=O)(=O)c1cncc(NC(=O)c2cc(C(F)(F)F)cnc2N2CCCCCC2)c1 [Example 6, 2-(azepan-1-yl)-N-(5-(methylsulfonyl)pyridin-3-yl)-5-(trifluoromethyl)nicotinamide] | 355
CC1(C)CN(c2ncc(C(F)(F)F)cc2C(=O)Nc2ccnc(S(N)(=O)=O)c2)CC(C(F)(F)F)O1 (single isomer, unassigned) [Example 135, (R or S)-2-(2,2-dimethyl-6-(trifluoromethyl)morpholino)-N-(2-sulfamoylpyridin-4-yl)-5-(trifluoromethyl)nicotinamide] | 57
CC1CC(F)(F)CCN1c1ncc(C(F)(F)F)cc1C(=O)Nc1ccnc(S(N)(=O)=O)c1 (single isomer, unassigned) [Example 74, (S or R)-2-(4,4-difluoro-2-methylpiperidin-1-yl)-N-(2-sulfamoylpyridin-4-yl)-5-(trifluoromethyl)nicotinamide] | 319
Cc1sc(S(N)(=O)=O)cc1NC(=O)c1cc(C(F)(F)F)cnc1N1CCCCCC1 [Example 114, 2-(azepan-1-yl)-N-(2-methyl-5-sulfamoyl-thiophen-3-yl)-5-(trifluoromethyl)pyridine-3-carboxamide] | 95
Cc1ccc(C(=O)Nc2cncc(S(N)(=O)=O)c2)c(N2CCC(F)(F)CC2)n1 [Example 9, 2-(4,4-difluoro-1-piperidyl)-6-methyl-N-(5-sulfamoyl-3-pyridyl)pyridine-3-carboxamide] | 816

The next lines start with the values.

IC50 [nM] | SMILES
16 | NS(=O)(=O)c1cc(NC(=O)c2cc(C(F)(F)F)cnc2N2CCCCCC2)ccn1 [Example 139, 2-(azepan-1-yl)-N-(2-sulfamoyl-4-pyridyl)-5-(trifluoromethyl)pyridine-3-carboxamide]
152 | NS(=O)(=O)c1cc(NC(=O)c2cc(C(F)(F)F)cnc2N2CCC(c3ccc(C(F)(F)F)cc3)C2)ccn1 (stereo not shown) [Example 85, N-(2-sulfamoyl-4 pyridyl)-5-(trifluoromethyl)-2-[3-[4-(trifluoromethyl)phenyl]pyrrolidin-1-yl]pyridine-3-carboxamide]
56 | NS(=O)(=O)c1cc(NC(=O)c2cc(C(F)(F)F)cnc2N2CCCO[C@H](C(F)(F)F)C2)ccn1 [Example 104, (S)-N-(2-sulfamoylpyridin-4-yl)-5-(trifluoromethyl)-2-(2-(trifluoromethyl)-1,4-oxazepan-4-yl)nicotinamide]
14 | CC1CN(c2ncc(C(F)(F)F)cc2C(=O)Nc2ccnc(S(N)(=O)=O)c2)CCC1(Cl)Cl (single isomer, unassigned) [Example 50, (S or R)-2-(4,4-dichloro-3-methylpiperidin-1-yl)-N-(2-sulfamoylpyridin-4-yl)-5-(trifluoromethyl)nicotinamide]
745 | NS(=O)(=O)c1cc(NC(=O)c2cc(C(F)(F)F)cnc2N2CCC(n3cccn3)C2)ccn1 (stereo not shown) [Example 94, 2-(3-pyrazol-1-ylpyrrolidin-1-yl)-N-(2-sulfamoyl-4-pyridyl)-5-(trifluoromethyl)pyridine-3-carboxamide]
2560 | NS(=O)(=O)c1cc(NC(=O)c2cc(C(F)(F)F)cnc2N2CCN(CC3CC3)C(=O)C2)ccn1 [Example 99, 2-[4-(cyclopropylmethyl)-3-oxo-piperazin-1-yl]-N-(2-sulfamoyl-4-pyridyl)-5-(trifluoromethyl)pyridine-3-carboxamide]
505 | C[C@H]1CN(c2ncc(C(F)(F)F)cc2C(=O)Nc2ccnc(S(N)(=O)=O)c2)CCO1 [Example 110, 2-[(2S)-2-methylmorpholin-4-yl]-N-(2-sulfamoyl-4-pyridyl)-5-(trifluoromethyl)pyridine-3-carboxamide]
233 | C[C@@H]1CN(c2ncc(C(F)(F)F)cc2C(=O)Nc2ccnc(S(N)(=O)=O)c2)C[C@H](C)[C@]1(C)O [Example 75, 2-((3R,4s,5S)-4-hydroxy-3,4,5-trimethylpiperidin-1-yl)-N-(2-sulfamoylpyridin-4-yl)-5-(trifluoromethyl)nicotinamide]
